Data set [1] in a line: Rat brain to plasma ratio (Kp, Kp,uu). It counts as in vivo. The settings on record: male, Sprague Dawley, intravenous, 0.2 mg/kg; for Kp uu at 15 min: brain and plasma (unbound), rat unbound brain:unbound plasma; for Kp at 15 min: brain and plasma, rat brain:plasma. Here is the method: Determination of brain to plasma ratio:
All animal study procedures were approved by the Institutional Animal Care and Use Committee and were conducted in accordance with the National Institutes of Health regulations of animal care covered in Principles of Laboratory Animal Care (National Institutes of Health). All rats were fasted overnight prior to testing.
For determination of the brain over plasma ratio (Kp), compounds were formulated in 8% ethanol, 32% PEG400 and 60% DMSO (v/v/v) and administered as a single 0.2 mg/kg IV dose (1 mL/kg) to male, Sprague Dawley rats (n = 1) via injection into a surgically-implanted jugular vein catheter. At 15 min post dosing, blood sample was collected into chilled, K2EDTA anticoagulant-fortified tube and immediately placed on wet ice. The blood sample was then centrifuged (1700 rcf, 5 minutes, 4 °C) to obtain plasma sample. At the same post-administration time point, whole brain sample was obtained by rapid dissection, rinsed with PBS, and immediately frozen in individual tissue collection box (dry ice). All brain and plasma samples were stored at -80 °C until […]
Sample Analysis: Concentrations in plasma and brain homogenates were quantified by liquid chromatography tandem mass spectrometry (LC-MS/MS). Whole brains were homogenized in 3 mL of 70:30 IPA:water in a mini bead beater for 3 min, and centrifuged at 3,500 g for 5 min. 5 uL of the supernatant was diluted in 15 uL of blank plasma for quantification of the analytes. Plasma samples were centrifuged at 3,500 g for 5 min. A standard curve was generated by diluting the analytes DMSO stocks with blank plasma to obtain a final concentration of 10,000 ng/ml followed by a serial dilution down to 0.5 ng/ml. Quality controls were generated by a serial dilution of the 5,000 ng/ml standard curve solution in blank plasma to obtain 3 concentrations of 500, 50, and 5 ng/ml. 20 uL of brain diluted in plasma, plasma, blank plasma, standard curve and QC samples were loaded in a V-bottom 96-well plate. 120 uL of acetonitrile containing 0.05 uM carbamazepine (internal standard) was added to each well and the plate was centrifuged at 3,500 g for 5 min. 60 uL of the supernatant of each well (protein free) was transferred to a new 96-well plate containing 60 uL of water. The plates were sealed for analysis by LC-MS/MS.
Plasma and brain tissue samples originating from in vivo studies were analyzed by electrospray ionization using an AB Sciex Q-TRAP 5500 (Foster City, CA) that was coupled to a Shimadzu LC-20AD pump (Columbia, MD) and a Leap Technologies CTC PAL auto-sampler (Carrboro, NC). Analytes were separated by gradient elution using a C18 column (3 x 50 mm, 3 mm; Fortis Technologies Ltd, Cheshire, UK) that was thermostated at 40 °C. HPLC mobile phase A was 0.1% formic acid in water (pH unadjusted); mobile phase B was 0.1% formic acid in acetonitrile (pH […]
min, with an isocratic hold for 0.5 min, before transitioning to 10% B over 0.05 min. The column was re-equilibrated (1 min) before the next sample injection. The total run time was 2.55 min, and the HPLC flow rate was 0.5 ml/min. The source temperature was set at 500 °C, and mass spectral analyses were performed using a Turbo-Ion spray source in positive ionization mode (5.0-kV spray voltage) and using multiple-reaction monitoring of transitions specific for the analytes. All data were analyzed using AB Sciex Analyst 1.5.1 software.
Brain plasma concentration ratio (Kp) was calculated by dividing brain concentration by plasma concentration for each animal. Unbound brain to unbound plasma concentration ratio (Kp,uu) is calculated using the following formula: Kp,uu = (Brain ng/g x brain fu)/(plasma ng/ml x plasma fu).
In-vitro determination of blood-brain barrier penetration potential
Blood-brain barrier penetration was determined using MDR1-MDCK cell monolayers by Absorption Systems, following their protocol. In short, compounds were incubated at […] final concentration on one side of the cell monolayer for 2 hours. […]

In the next data set the target is T1, human TREK-1 (hTREK-1) (Homo sapiens, UniProt O95069).
T1 construct: expressed in transfected cells
T1 sequence (O95069 1-426): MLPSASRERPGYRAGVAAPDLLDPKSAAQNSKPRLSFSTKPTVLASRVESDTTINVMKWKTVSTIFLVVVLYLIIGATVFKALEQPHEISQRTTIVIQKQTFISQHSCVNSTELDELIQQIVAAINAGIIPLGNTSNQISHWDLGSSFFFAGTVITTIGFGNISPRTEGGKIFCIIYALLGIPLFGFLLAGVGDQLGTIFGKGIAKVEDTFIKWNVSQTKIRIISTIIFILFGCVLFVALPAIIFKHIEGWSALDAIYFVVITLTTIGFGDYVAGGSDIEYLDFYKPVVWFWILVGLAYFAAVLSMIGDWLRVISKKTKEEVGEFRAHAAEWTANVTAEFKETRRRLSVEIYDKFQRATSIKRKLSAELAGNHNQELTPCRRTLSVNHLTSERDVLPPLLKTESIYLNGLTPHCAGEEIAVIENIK
Kind of data set: TREK-1 thallium flux assay (CHO-K1 cells stably expressing hTREK-1). The settings on record: human TREK-1, thallium flux; read-out: h TREK-1 Tl+ IC50. It counts as cell-based. The method, boiled down:
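Cells loaded with FluxOR dye were preincubated 10 min with test compound in 0.3% DMSO, then given thallium stimulus buffer. ΔRatio was fluorescence 25 s after thallium over pre-thallium baseline; % inhibition was normalised between vehicle and 10 μM reference blocker, and IC50 was fitted from concentration–response.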

Each structure is given as a SMILES string. Values joined by “and” are separate entries in the source; they are usually repeats but may differ in a detail not shown here. Equal values may be shown once.

Take `CC(=O)N1CCC(n2ncc(Cl)c2C(=O)Nc2ncc(C#Cc3ccccc3)cc2C)CC1` [Compound 10, 1-(1-Acetylpiperidin-4-yl)-4-chloro-N-(3-methyl-5-(phenylethynyl)pyridin-2-yl)-1H-pyrazole-5-carboxamide]: in data set [1], the Kp uu at 15 min came to 1 and the Kp at 15 min is 2.7. Further, the IC50 at human TREK-1 (hTREK-1) was 67 nM and 70 nM.

As to `Cc1cc(C#Cc2ccccc2)cnc1NC(=O)c1c(Cl)cnn1[C@H]1CCOC1` [Compound 15a, (S)-4-Chloro-N-(3-methyl-5-(phenylethynyl)pyridin-2-yl)-1-(tetrahydrofuran-3-yl)-1H-pyrazole-5-carboxamide], the Kp at 15 min in data set [1] was 2.8. Besides, at human TREK-1 (hTREK-1), the concentration for half-maximal inhibition (IC50) stood at 360 nM.

For the compound `Cc1cc(C#Cc2ccccc2)cnc1NC(=O)c1cc(OC[C@@H]2COCCO2)ccc1Cl` [Compound 7, (S)-5-((1,4-Dioxan-2-yl)methoxy)-2-chloro-N-(3-methyl-5-(phenylethynyl)pyridin-2-yl)benzamide], the Kp at 15 min in data set [1] stood at 0.86. In addition, the 50% inhibitory concentration (IC50) at human TREK-1 (hTREK-1) is 210 nM.

Turning to `CC(=O)N1CC[C@@H](n2ncc(Cl)c2C(=O)Nc2ncc(C#Cc3ccc(F)cc3)cc2C)[C@H](F)C1` [Compound 11, 1-((3R,4R)-1-Acetyl-3-fluoropiperidin-4-yl)-4-chloro-N-(5-((4-fluorophenyl)ethynyl)-3-methylpyridin-2-yl)-1H-pyrazole-5-carboxamide], in data set [1], the Kp uu at 15 min is 0.1 and the Kp at 15 min came to 1.5. Moreover, at human TREK-1 (hTREK-1), the IC50 came out at 110 nM.

The values are drawn from publication PMC12621189, “Optimization of Selective and CNS Penetrant Alkyne-Based TREK Inhibitors: The Discovery and Characterization of ONO-9517601 (VU6022856) and ONO-7927846 (VU6024391)” (Journal of Medicinal Chemistry, 2025).
